Test results as given in patent US20260317277A1, “ARYLALKYLAMINE COMPOUND, AND PREPARATION METHOD THEREFOR AND USE THEREOF” (RENHE YIKANG GROUP CO., LTD., priority 2024, published 2026).

Tests used:
[1] = Pharmacokinetic study in SD rats; assay type: in vivo, Male Sprague-Dawley (SD) rats; details: male SD rats, oral gavage; Evocalcet = 100
Experimental: Animal Information: Male Sprague-Dawley (SD) rats, aged 7-8 weeks, were used. Each group consisted of 3-5 rats.
Dosing Information: The rats were fasted for more than 12 hours prior to administration. A single dose was administered via oral gavage.
Blood Sampling Time Points: Blood samples were collected from the tail vein before administration and at 0.25, 0.5, 1, 2, 4, 6, 8, and 24 hours post-administration. A volume of 100 μL of blood was collected at each time point.
Sample Processing and Storage: The blood samples were transferred into 1.5 mL microcentrifuge tubes, with 50 μL per tube (two tubes per sample). Centrifugation was completed within 2 hours. Whole blood samples were kept on ice prior to centrifugation. Centrifugation was performed at 4000 rpm, 2-8° C., for 10 minutes. After collecting the supernatant, it was stored at −80° C. or below if not analyzed immediately.
Column: An InfinityLab Poroshell 120 SB-C18 column (2.1×100 mm, 2.7 μm) was used. Column Temperature: The temperature was maintained at 30° C. Flow Rate: The flow rate was set at 0.3 mL/min. Run Time: The total run time was 9.5 minutes. Post-run Time: A post-run time of 2 minutes was applied. Injection Volume: An injection volume of 2 μL was used. Mobile Phase: A mixture of methanol and 0.1% formic acid was employed as the mobile phase. Gradient Elution: Gradient elution was performed according to the table below.
b) the Mass Spectrometry Conditions were Set as Follows: […]
Preparation of Standard Solutions: Appropriate volumes of Evocalcet, Compound 2, and Compound 3 stock solutions were precisely measured and diluted with 50% methanol to prepare standard solutions with concentrations of 80, 200, 1000, 5000, 10000, 20000, and 40000 ng/mL.
Preparation of Internal Standard (Clenbuterol Hydrochloride) Solution: 10 mg of clenbuterol hydrochloride was accurately weighed and transferred into a 10 mL volumetric flask. […] An appropriate volume of the stock solution was precisely measured and diluted with methanol to prepare a 2000 ng/mL internal standard working solution. […]

[2] = Review Report on Evocalcet Tablets 1 mg and 2 mg, March 2018; cited from earlier work

| Relative bioavailability (%) [1] [%] | Structure (SMILES) | adverse reactions [2] |
| --- | --- | --- |
| 144 | Cc1cc(CC(=O)O)ccc1N1CC[C@H](N[C@H](C)c2cccc3ccccc23)C1 [Compound 3, 2-(3-methyl-4-((S)-3-(((R)-1-(naphthalen-1-yl)ethyl)amino)pyrrolidin-1-yl)phenyl)acetic Acid] |  |
| 100 | C[C@@H](N[C@H]1CCN(c2ccc(CC(=O)O)cc2)C1)c1cccc2ccccc12 [Evocalcet] | hypocalcemia, vomiting, nausea, chills, QT prolongation, mood disturbances, cardiac arrhythmia, hypotension, and cramps |
| 136 | C[C@@H](N[C@H]1CCN(c2ccc(CC(=O)O)cc2F)C1)c1cccc2ccccc12 [Compound 2, 2-(3-fluoro-4-((S)-3-(((R)-1-(naphthalen-1-yl)ethyl)amino)pyrrolidin-1-yl)phenyl)acetic Acid] |  |
